Key:
[1] = system: rabbit anterior cruciate ligament transection (ACLT) model of osteoarthritis; assay: ACLT model, therapeutic dosing regimen (Example IX); assay type: in vivo; settings: for Trochlear Groove Erosion of Cartilage / Tibial Plateau Presence of Clefts (Lateral) / Tibial Plateau Presence of Clefts (Medial) / Trochlear Groove Thickening / Femoral Condyle Presence of Clefts / Femoral Condyle % Surface Area Erosion (Lateral) / Femoral Condyle % Surface Area Erosion (Medial) / Tibial Plateau % Surface Area Erosion (Lateral) / Tibial Plateau % Surface Area Erosion (Medial) / Tibial Plateau # of Osteophytes (Lateral) / Tibial Plateau # of Osteophytes (Medial) / Trochlear Groove # of Osteophytes / Trochlear Groove Osteophyte Size / Femoral Condyle Depth of Erosion (Lateral) / Femoral Condyle Depth of Erosion (Medial) / Tibial Plateau Depth of Erosion (Lateral) / Tibial Plateau Depth of Erosion (Medial) / Combination Scores: All Trochlear Groove Effects / Combination Scores: All Condylar Effects / Combination Scores: All Tibial Plateau Effects / Combination Scores: All Cartilage Effects / Combination Scores: Total Score: Therapeutic Dosing Regimen; for Trochlear Groove Erosion of Cartilage / Tibial Plateau Presence of Clefts (Lateral) / Tibial Plateau Presence of Clefts (Medial) / Trochlear Groove Thickening / Femoral Condyle Presence of Clefts / Femoral Condyle % Surface Area Erosion (Lateral) / Femoral Condyle % Surface Area Erosion (Medial) / Tibial Plateau % Surface Area Erosion (Lateral) / Tibial Plateau % Surface Area Erosion (Medial) / Tibial Plateau # of Osteophytes (Lateral) / Tibial Plateau # of Osteophytes (Medial) / Trochlear Groove # of Osteophytes / Trochlear Groove Osteophyte Size / Femoral Condyle Depth of Erosion (Lateral) / Femoral Condyle Depth of Erosion (Medial) / Tibial Plateau Depth of Erosion (Lateral) / Tibial Plateau Depth of Erosion (Medial): mean gross score; for Trochlear Groove Erosion of Cartilage: 0 = 0, 1 < 25%, 2 = 25-50%, 3 > 50%; for Tibial Plateau Presence of Clefts (Lateral) / Tibial Plateau Presence of Clefts (Medial): 0 = Absent, 1 = Present; for Trochlear Groove Thickening: 0 = Normal, 1 = Thickened Areas; for Femoral Condyle Presence of Clefts: 0 = absent, 1 = unicondylar, 2 = both condyles; for Femoral Condyle % Surface Area Erosion (Lateral) / Femoral Condyle % Surface Area Erosion (Medial) / Tibial Plateau % Surface Area Erosion (Lateral) / Tibial Plateau % Surface Area Erosion (Medial): scale 0-5; for Tibial Plateau # of Osteophytes (Lateral) / Tibial Plateau # of Osteophytes (Medial) / Trochlear Groove # of Osteophytes / Trochlear Groove Osteophyte Size: scale 0 = 0; for Tibial Plateau # of Osteophytes (Lateral) / Tibial Plateau # of Osteophytes (Medial) / Trochlear Groove # of Osteophytes: 1 = 1, 2 = 2, 3 ≧ 2; for Trochlear Groove Osteophyte Size: 1 ≦ 1 mm, 2 = 1-2 mm, 3 > 2 mm; for Femoral Condyle Depth of Erosion (Lateral) / Femoral Condyle Depth of Erosion (Medial) / Tibial Plateau Depth of Erosion (Lateral) / Tibial Plateau Depth of Erosion (Medial): scale 0 = no damage to 3 = severe; for Combination Scores: All Trochlear Groove Effects / Combination Scores: All Condylar Effects / Combination Scores: All Tibial Plateau Effects / Combination Scores: All Cartilage Effects / Combination Scores: Total Score: mean; for Combination Scores: All Trochlear Groove Effects: 0-10, 10 = max damage; for Combination Scores: All Condylar Effects: 0-18, 18 = max damage; for Combination Scores: All Tibial Plateau Effects: 0-24, 24 = max damage; for Combination Scores: All Cartilage Effects: 0-40, 40 = max damage; for Combination Scores: Total Score: 0-52, 52 = max damage
Procedure: 130 Female New Zealand white rabbits underwent ACLT on the right knee. Intra-articular injections were administered to the operated knee once per week for five weeks beginning either one or six weeks after the ACLT. All animals were euthanized one week after the administration of the fifth injection. Gross observations were made on the knee joints according to a predetermined grading scale. The stifle joints were removed. Samples were preserved in 10% neutral buffered formalin. The stifle joints were photographed using high-resolution photography.
The ACLT was performed according to the ACLT model discussed above. Animals were group housed in pens on the floor and left untreated for six weeks to allow osteoarthritis to develop. Then, once weekly for five weeks, intra-articular injections were administered. One week following the last injection, the animals were sacrificed. The total in-life portion of this regimen was eleven weeks post-ACLT.
The study design consisted of an n=10 per group. A total of 160 μl was injected at each administration.
At the time of sacrifice the following parameters were evaluated grossly (the scale follows in parenthesis):
Each parameter was given a score. The combination of all parameters gave a Total Score (0-52). Additionally, combinations of the three subsets of data yielded scores for All Trochlear Groove Effects (0-10), All Condylar Effects (0-18) and All Tibial Plateau Effects (0-24). Lastly, an […] was obtained. The score for […] ranges from 0 to 40. The grades that compose this parameter are trochlear groove thickness and erosion, all the grades in All Condylar Effects, and all grades listed under Tibial Plateau. A higher score indicates more damage to the joint. A lower score indicates less damage or more cartilage preservation in the joint. Individual results for each parameter assessed were tabulated.

[2] = system: rabbit anterior cruciate ligament transection (ACLT) model of osteoarthritis; assay: ACLT model, p38 MAP kinase inhibitors (Example VII); assay type: in vivo; design: key to Clinical Scoring - Total Score, Mean / Clinical Scoring - Trochlear Groove Effects, Mean / Clinical Scoring - All Tibial Plateau Effects, Mean / Clinical Scoring - All Cartilage Effects, Mean / Clinical Scoring - All Condylar Effects, Mean: gross joint damage score; higher = more damage; settings: for All Condylar Effects: at the low dose; for Total Score / All Cartilage Effects: both doses; for All Cartilage Effects: compared to the non-injected control group; for lateral femoral condyle surface erosion: high and low dose
Procedure: New Zealand white rabbits (male, six to eight pounds) were anesthetized with ketamine (17 mg/kg) and xylazine (2.5 mg/kg). Supplementation was given during surgery, if needed, with an additional intramuscular injection of ketamine (35 mg/kg) and xylazine (5 mg/kg). The animals were given buprenorphine (0.01-0.05 mg/kg) for analgesia via a subcutaneous injection. The buprenorphine was administered every twelve hours for seventy-two hours. After induction of anesthesia, the right leg was clipped free of hair using electric animal clippers. The area around the site of surgery was scrubbed with chlorhexidine diacetate, rinsed with alcohol, dried, and painted with an aqueous iodophor solution of 1% available iodine and surgery was prepared using aseptic technique. In the right limb of each animal, the anterior cruciate ligament (ACL) was transected. A medial parapatellar incision was made and the patella was dislocated. The knee was flexed and the ACL visualized. A scalpel blade was positioned behind the ACL and brought anteriorly, thereby cutting the ACL while protecting the posterior cruciate ligament. The patella was returned to the normal anatomic position. The wound was closed in layers.
Following surgery, the animals were left untreated for six weeks. After six weeks, a series of five injections of the test compound were injected intra-articularly once weekly.
The animals were euthanized six weeks after initiation with an intravenous injection of pentobarbital (60 mg/kg). […] Immediately following euthanasia, gross observations of the knee joints were made and any abnormality was recorded. The joints were analyzed for disease state in the trochlear groove, the femoral condyles and the tibial plateau. Pathological assessments were performed on the sectioned tissue. Condylar structure, cellularity, presence of GAG and presence of cartilage were evaluated.
Sterile formulations of the test compounds were prepared by gamma irradiating (15 kGy) them on dry ice. […] All formulations were prepared in an aseptic manner by dispersing the drug into ARTHREASE®. […] The drug was delivered in a volume of 160 μL at a concentration of […]. The low dose was made by diluting with ARTHREASE® to the final concentration.
Ninety-six (96) rabbits underwent ACLT on the right knee (n=ten per group) according to the ACLT model. Anesthesia, analgesia, surgical preparation, surgery, intra-articular injections, and euthanasia were conducted according to the ACLT model.
At the time of sacrifice, the following parameters were evaluated grossly (the scale follows in parenthesis):
Each parameter was given a score. The combination of all parameters gave a Total Score. A higher score indicates more damage to the joint. […] Individual results for each parameter assessed were tabulated. Data for the individual scores is not shown.

CC(C(=O)O)c1ccc(C(=O)c2cccs2)cc1 (centres unmarked) [Suprofen, reference compound]
Trochlear Groove Erosion of Cartilage [1]: 1.9
Tibial Plateau Presence of Clefts (Lateral) [1]: 0
Tibial Plateau Presence of Clefts (Medial) [1]: 0
Trochlear Groove Thickening [1]: 0
Femoral Condyle Presence of Clefts [1]: 0
Femoral Condyle % Surface Area Erosion (Lateral) [1]: 1.3
Femoral Condyle % Surface Area Erosion (Medial) [1]: 0.3
Tibial Plateau % Surface Area Erosion (Lateral) [1]: 1.6
Tibial Plateau % Surface Area Erosion (Medial) [1]: 0
Tibial Plateau # of Osteophytes (Lateral) [1]: 0.8
Tibial Plateau # of Osteophytes (Medial) [1]: 1.6
Trochlear Groove # of Osteophytes [1]: 3.0
Trochlear Groove Osteophyte Size [1]: 3.0
Femoral Condyle Depth of Erosion (Lateral) [1]: 1.3
Femoral Condyle Depth of Erosion (Medial) [1]: 0.2
Tibial Plateau Depth of Erosion (Lateral) [1]: 1.4
Tibial Plateau Depth of Erosion (Medial) [1]: 0
Combination Scores: All Trochlear Groove Effects [1]: 7.9
Combination Scores: All Condylar Effects [1]: 3.0
Combination Scores: All Tibial Plateau Effects [1]: 5.4
Combination Scores: All Cartilage Effects [1]: 7.9
Combination Scores: Total Score [1]: 16.3
All Cartilage Effects, mean score ([1]; therapeutic dosing regimen): 7.9+1.5
all condylar effects, mean score ([1]; therapeutic dosing regimen): 3.0 ± 1.0
depth of the erosion on the lateral femoral condyle, mean score ([1]; therapeutic dosing regimen): 1.3 ± 0.4
depth of the erosion on the medial femoral condyle, mean score ([1]; therapeutic dosing regimen): 0.2 ± 0.1
percent surface area erosion of the lateral femoral condyle, mean score ([1]; therapeutic dosing regimen): 1.3 ± 0.4
percent surface area erosion of the medial femoral condyle, mean score ([1]; therapeutic dosing regimen): 0.3 ± 0.2

CC(=O)N1CCN(c2c(-c3ccncc3)c(-c3ccc(F)cc3)c(C#N)n2C)CC1 [JNJ 17089540 (RWJ 669307)]
All Condylar Effects [2]: decrease in overall clinical score
Total Score [2]: trended downward
All Cartilage Effects [2]: reduction in scores
lateral femoral condyle surface erosion [2]: efficacious in reducing the clinical score
Clinical Scoring - All Cartilage Effects, Mean ([2]; high dose): 6.21
Clinical Scoring - All Condylar Effects, Mean ([2]; high dose): 3.75
Clinical Scoring - All Tibial Plateau Effects, Mean ([2]; high dose): 2.38
Clinical Scoring - Total Score, Mean ([2]; high dose): 12.46
Clinical Scoring - Trochlear Groove Effects, Mean ([2]; high dose): 6.25
Clinical Scoring - All Cartilage Effects, Mean ([2]; low dose): 5
Clinical Scoring - All Condylar Effects, Mean ([2]; low dose): 2.68
Clinical Scoring - All Tibial Plateau Effects, Mean ([2]; low dose): 1.95
Clinical Scoring - Total Score, Mean ([2]; low dose): 10.41
Clinical Scoring - Trochlear Groove Effects, Mean ([2]; low dose): 5.55
Trochlear Groove Erosion of Cartilage [1]: 1.6
Tibial Plateau Presence of Clefts (Lateral) [1]: 0
Tibial Plateau Presence of Clefts (Medial) [1]: 0
Trochlear Groove Thickening [1]: 0
Femoral Condyle Presence of Clefts [1]: 0
Femoral Condyle % Surface Area Erosion (Lateral) [1]: 1.1
Femoral Condyle % Surface Area Erosion (Medial) [1]: 0.4
Tibial Plateau % Surface Area Erosion (Lateral) [1]: 1.4
Tibial Plateau % Surface Area Erosion (Medial) [1]: 0
Tibial Plateau # of Osteophytes (Lateral) [1]: 0.7
Tibial Plateau # of Osteophytes (Medial) [1]: 1.5
Trochlear Groove # of Osteophytes [1]: 3.0
Trochlear Groove Osteophyte Size [1]: 3.0
Femoral Condyle Depth of Erosion (Lateral) [1]: 1.1
Femoral Condyle Depth of Erosion (Medial) [1]: 0.2
Tibial Plateau Depth of Erosion (Lateral) [1]: 1.2
Tibial Plateau Depth of Erosion (Medial) [1]: 0
Combination Scores: All Trochlear Groove Effects [1]: 7.6
Combination Scores: All Condylar Effects [1]: 2.8
Combination Scores: All Tibial Plateau Effects [1]: 4.8
Combination Scores: All Cartilage Effects [1]: 7.0
Combination Scores: Total Score [1]: 15.2
All Cartilage Effects, mean score ([1]; therapeutic dosing regimen): 7.0+1.0
all condylar effects, mean score ([1]; therapeutic dosing regimen): 2.8 ± 0.6
depth of the erosion on the lateral femoral condyle, mean score ([1]; therapeutic dosing regimen): 1.1 ± 0.4
depth of the erosion on the medial femoral condyle, mean score ([1]; therapeutic dosing regimen): 0.2 ± 0.1
percent surface area erosion of the lateral femoral condyle, mean score ([1]; therapeutic dosing regimen): 1.1 ± 0.4
percent surface area erosion of the medial femoral condyle, mean score ([1]; therapeutic dosing regimen): 0.4 ± 0.2
total score, mean ([1]; therapeutic dosing regimen): 15.2 ± 1.2

OCCC#Cc1nc(-c2ccc(F)cc2)c(-c2ccncc2)n1CCCc1ccccc1 [JNJ 3026582 (RWJ 67657), 4-[4-(4-fluorophenyl)-1-(3-phenylpropyl)-5-(4-pyridinyl)-1H-imidazol-2-yl]-3-butyn-1-ol]
All Condylar Effects [2]: no effect
Total Score [2]: Neither JNJ 3026582 (RWJ 67657) nor SCIO-282 (SD 282) had an effect
All Cartilage Effects [2]: no efficacy
lateral femoral condyle surface erosion [2]: no effect
Clinical Scoring - All Cartilage Effects, Mean ([2]; high dose): 9.75
Clinical Scoring - All Condylar Effects, Mean ([2]; high dose): 6.25
Clinical Scoring - All Tibial Plateau Effects, Mean ([2]; high dose): 2.25
Clinical Scoring - Total Score, Mean ([2]; high dose): 16.58
Clinical Scoring - Trochlear Groove Effects, Mean ([2]; high dose): 7.92
Clinical Scoring - All Cartilage Effects, Mean ([2]; low dose): 7.58
Clinical Scoring - All Condylar Effects, Mean ([2]; low dose): 4.71
Clinical Scoring - All Tibial Plateau Effects, Mean ([2]; low dose): 1.63
Clinical Scoring - Total Score, Mean ([2]; low dose): 14.17
Clinical Scoring - Trochlear Groove Effects, Mean ([2]; low dose): 7.75
Trochlear Groove Erosion of Cartilage [1]: 1.9
Tibial Plateau Presence of Clefts (Lateral) [1]: 0
Tibial Plateau Presence of Clefts (Medial) [1]: 0
Trochlear Groove Thickening [1]: 0.3
Femoral Condyle Presence of Clefts [1]: 0
Femoral Condyle % Surface Area Erosion (Lateral) [1]: 2.4
Femoral Condyle % Surface Area Erosion (Medial) [1]: 0.7
Tibial Plateau % Surface Area Erosion (Lateral) [1]: 1.3
Tibial Plateau % Surface Area Erosion (Medial) [1]: 0.4
Tibial Plateau # of Osteophytes (Lateral) [1]: 0.9
Tibial Plateau # of Osteophytes (Medial) [1]: 1.4
Trochlear Groove # of Osteophytes [1]: 2.9
Trochlear Groove Osteophyte Size [1]: 2.9
Femoral Condyle Depth of Erosion (Lateral) [1]: 1.7
Femoral Condyle Depth of Erosion (Medial) [1]: 0.8
Tibial Plateau Depth of Erosion (Lateral) [1]: 0.9
Tibial Plateau Depth of Erosion (Medial) [1]: 0.2
Combination Scores: All Trochlear Groove Effects [1]: 8.0
Combination Scores: All Condylar Effects [1]: 5.6
Combination Scores: All Tibial Plateau Effects [1]: 5.3
Combination Scores: All Cartilage Effects [1]: 10.8
Combination Scores: Total Score [1]: 18.9

— US8986696B2, “Trans-capsular administration of p38 map kinase inhibitors into orthopedic joints” (DePuy Mitek, Inc., priority 2007, dated 2015)
